Assay [1] deals with T1, CXCR2 (Homo sapiens, UniProt P25025).
T1 sequence (P25025 1-360): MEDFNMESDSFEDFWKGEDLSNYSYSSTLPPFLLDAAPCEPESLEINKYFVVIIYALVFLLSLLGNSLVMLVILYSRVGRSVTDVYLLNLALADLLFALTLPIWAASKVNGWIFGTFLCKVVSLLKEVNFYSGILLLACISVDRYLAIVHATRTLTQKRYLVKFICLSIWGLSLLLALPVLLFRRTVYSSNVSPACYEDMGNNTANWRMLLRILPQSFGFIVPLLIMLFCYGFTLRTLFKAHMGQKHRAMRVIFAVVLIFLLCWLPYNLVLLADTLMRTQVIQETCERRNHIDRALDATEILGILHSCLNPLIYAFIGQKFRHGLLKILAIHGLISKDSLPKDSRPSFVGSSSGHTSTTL
Particulars: cited from earlier work.

The test system of assay [2] is CXCR2+ G-MDSCs. Description: Thioglycolate-induced peritonitis, G-MDSC recruitment to peritoneum (flow cytometry). In kind it is in vivo, mouse. Particulars: 2 mg/kg IP at thioglycolate infusion and 12 hr later; peritoneal cells harvested at 24 h; control and Poly I:C-treated mice. The protocol:
FIGS. 3A-3B. A) Representative flow cytometry plots of CXCR2 expression on peritoneal M-MDSCs and G-MDSCs of control and Poly I:C-treated CSF1R^FIFI-Mx1-Cre mice (n=5 mice). Peritoneal cells were harvested […] after thioglycolate infusion (n=5 mice). B) Representative flow cytometry plots of peritoneal M-MDSCs and G-MDSCs harvested 24 hrs after thioglycolate infusion of control and Poly I:C-treated CSF1R^FI/FI-Mx1-Cre mice (n=5 mice). Mice were either untreated or treated with 2 mg/kg SB225002 (CXCR2 inhibitor) at time of thioglycolate infusion and 12 hrs before harvesting (n=5 mice).
Blocking G-MDSC recruitment in thioglycolate-induced peritonitis with a CXCR2 inhibitor. The C-X-C chemokine receptor 2 (CXCR2) signaling axis plays a key role in the migration of immunosuppressive MDSCs. To identify whether these subsets of MDSCs in the peritoneal cavity elicited through thioglycolate-induced peritonitis express CXCR2, peritoneal cells were harvested 24 hours after intraperitoneal injection of thioglycolate and were analyzed by flow cytometry (FIG. 3A). […] At the 24 h time point, peritoneal cells were harvested and analyzed by flow cytometry (FIG. 3B).
Flow cytometry. […] Fluorescence compensations were performed using single-stained UltraComp eBeads (Affymetrix). […] Data was acquired using a FACSAria II cell sorter (BD Biosciences) and analyzed using FlowJo software. […]
For orientation: Flow cytometry measures light scatter and fluorescence of single cells or particles in a stream.

Assay [3] relates to B16-F10 melanoma. The assay can be described thus: B16-F10 melanoma in control and Poly I:C-treated CSF1R Fl/Fl-Mx1-Cre mice treated with CXCR2 inhibitor. In kind it is in vivo, mouse. The protocol: FIGS. 5A-5D. A) CSF1R^FI/FI-Mx1-Cre mice received three intraperitoneal injections of Poly I:C (100 ug) and were rested for one week. 5×10^5 B16-F10 mouse melanoma cells were then subcutaneously engrafted into flanks of control and Poly I:C-treated CSF1R^FIFI-Mx1-Cre mice. Following the day of engraftment, mice were either untreated or treated daily with 2 mg/kg SB225002 (CXCR2 inhibitor). Burden of B16-F10 melanoma tumors in control and Poly I:C-treated CSF1R^FIFI-Mx1-Cre mice treated with or without SB225002. Data are mean±s.e.m. (n=5 mice per group). B) Flow cytometry analysis of M-MDSCs and G-MDSCs in tumors of mice. MDSCs are gated on CD11b+ cells. Data are mean±s.e.m. (n=5 mice per group). C) Flow cytometry analysis of M-MDSCs and G-MDSCs in bone marrow of tumor-bearing mice. MDSCs are gated on CD11b+ cells. Data are mean±s.e.m. (n=5 mice per group). D) Flow cytometry analysis of M-MDSCs and G-MDSCs in the peripheral blood of tumor-bearing mice. MDSCs are gated on CD11b+ cells. Data are mean±s.e.m. (n=5 mice per group).
Targeting G-MDSCs in B16-F10 melanoma with a CXCR2 inhibitor. To determine whether targeting CXCR2+ G-MDSCs could lead to an anti-tumor response, poly I:C and PBS mice were subcutaneously engrafted with B16-F10 melanoma. The day after engraftment, mice were treated intraperitoneally with PBS or SB225002 six days per week. […] Tumors were harvested and subjected to flow cytometry for immunophenotyping.
Flow cytometry. Samples were blocked with monoclonal antibody to CD16/32 (TruStain fcX, BioLegend) before staining with antibody panels. Samples were stained for 30 min on ice, and subsequently washed with FACS buffer (PBS with 1% FBS buffer). Fluorescence compensations were performed using single-stained UltraComp eBeads (Affymetrix). The following antibodies were used for FACS analysis: Anti-CD11b (M1/70 BD Biosciences); Anti-F4/80 (BM8 BioLegend); Anti-Ly6G (1A8 BioLegend), Anti-Ly6C (HK1.4 BioLegend); Anti-CXCR2 (SA044G4 BioLegend). SYTOX blue dead cell stain (Invitrogen) was used for dead cell exclusion. Data was acquired using a FACSAria II cell sorter (BD Biosciences) and analyzed using FlowJo software.
In vivo tumor experiments and treatments. Mice 6-8 weeks of age were given subcutaneous injection of B16-F10 melanoma cells in PBS into the right flank. Tumor growth was measured by using calipers and volumes were calculated by using the formula: volume= 4/3π×(x/2)2×(y/2), where x is the largest measurable dimension of the tumor and y is the dimension immediately perpendicular to x. Tumor volumes were evaluated using two-way ANOVA in GraphPad Prism. For tumor treatments, mice were given mouse IgG1 isotype control clone MOPC21 (BioXCell), anti-CD47 mAb clone MIAP410 (BioXCell), or SB225002 (ToCris) by intraperitoneal injection.

The target in assay [4] is T1, CXCR2. Particulars: read-out: Kd of IL-8 binding to CXCR2; cited from earlier work.
The target in assay [5] is T2, CXCR1 (Homo sapiens, UniProt P25024).
T2 sequence (P25024 1-350): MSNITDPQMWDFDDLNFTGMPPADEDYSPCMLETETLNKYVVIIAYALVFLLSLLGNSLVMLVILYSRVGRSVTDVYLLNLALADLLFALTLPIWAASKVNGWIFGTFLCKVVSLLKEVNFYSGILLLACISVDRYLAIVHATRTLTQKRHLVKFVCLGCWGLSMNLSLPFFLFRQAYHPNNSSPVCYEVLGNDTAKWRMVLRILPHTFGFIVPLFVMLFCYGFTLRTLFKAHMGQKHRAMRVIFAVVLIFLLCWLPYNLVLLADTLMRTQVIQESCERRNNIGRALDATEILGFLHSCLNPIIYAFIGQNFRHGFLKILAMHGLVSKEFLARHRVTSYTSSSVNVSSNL
Conditions: read-out: Kd of IL-8 binding to CXCR1; cited from earlier work.

As usually defined, the Kd is the constant that tells how readily two partners part at equilibrium.

As to `CC[C@@H](Nc1c(Nc2cccc(C(=O)N(C)C)c2O)c(=O)c1=O)c1ccc(C)o1` [Navaraxin, Navarixin], the Selective/Pan result in assay [1] was “Selective”.

As for `O=C(Nc1ccc([N+](=O)[O-])cc1O)Nc1ccccc1Br` [SB225002], the “Percentage of G-MDSCs in the peritoneal cavity” value in assay [2] is reported as “significantly decreased percentage of G-MDSCs”. In assay [3] (2 mg/kg intraperitoneally from the day after engraftment, especially in mice expressing CSF1R), the “Tumor progression (burden of B16-F10 melanoma tumors)” value is reported as “significantly decreased tumor progression”. Also, the “G-MDSCs in bone marrow of tumor-bearing mice” value in assay [3] (bone marrow, flow cytometry) is “significant decrease of G-MDSCs”. Besides, the “G-MDSCs in peripheral blood of tumor-bearing mice” value in assay [3] (peripheral blood, flow cytometry) is “significant decrease of G-MDSCs”. In addition, in assay [3] (tumors, flow cytometry, gated on CD11b+ cells), the “Tumor-infiltrating G-MDSCs” value was “significant decrease in tumor-infiltrating G-MDSCs”. Moreover, the Selective/Pan entry in assay [1] is listed as “Selective”.

As to `O=C(Nc1ccc(F)cc1)c1cnc(SCc2cc(OC(F)(F)F)ccc2B(O)O)nc1` [SX-682], the Selective/Pan result in assay [1] is on record as “Pan”.

Take “IL-8: chemokine ligand of CXCR1 and CXCR2”: the Kd in assay [4] and in assay [5] was approximately 4 nM each time.
